Publication PMC8619046, “ABCB1 and ABCG2 Control Brain Accumulation and Intestinal Disposition of the Novel ROS1/TRK/ALK Inhibitor Repotrectinib, While OATP1A/1B, ABCG2, and CYP3A Limit Its Oral Availability” (Pharmaceutics, 2021)
“And” between values parts separate entries of the source, which are not always exact repeats. Equal entries are not always repeated. Where two headings read alike, the source gives them in different places.

Assay: 4-h oral plasma pharmacokinetics and tissue distribution, male wild-type and ABC transporter knockout mice
Format: in vivo
Conditions: 10 mg/kg oral; for AUC(0-t) / Kp at 4 h / concentration at 4 h / Cmax / Tmax: FVB, mouse; for AUC(0-t) / Cmax / Tmax: plasma; for AUC(0-t): read-out: AUC0–4h; for Fold change Cliver / Fold change SIC (% of dose) / Fold change ratio (SIC (%)-to-plasma) / Fold change ratio (liver-to-plasma) / Fold change ratio (testis-to-plasma) / Fold increase Cbrain / Fold increase Ctestis / Fold change ratio (brain-to-plasma) / Fold increase AUC0–4h: vs wild-type; for Tmax: median (range)
Source text: Mice with similar average ages (and body weights) were randomly allocated in experimental groups as far as possible. Mice were maintained in a temperature-controlled and specific pathogen-free environment with a 12-h light and 12-h dark cycle and they received a standard diet (Transbreed, SDS Diets, Technilab-BMI, Someren, The Netherlands) and acidified water ad libitum. […] Given the objective main readout (repotrectinib plasma and tissue concentrations as measured by LC-MS/MS), no blinding method was applied.
Repotrectinib was dissolved in dimethyl sulfoxide (DMSO) at a concentration of 50 mg/mL. This stock solution was first diluted 3-fold with ethanol/polysorbate 80 (1/1; v/v), followed by further dilution with a 10 mM hydrochloric acid solution, yielding a dosing solution of 1 mg/mL, freshly prepared on the day of experiment. Final concentrations of the solvents in the administration solution were: 2%, 2%, 2%, and 94% (all v/v) for DMSO, ethanol, polysorbate 80, and 10 mM hydrochloric acid solution, respectively.
To minimize variation in absorption upon oral administration, mice were fasted for 2–3 h before repotrectinib (10 mg/kg body weight) was administered by gavage into the stomach at 10 µL/g body weight, with a blunt-ended needle. Tail vein serial blood samples were collected at 0.125, 0.25, 0.5, 1, 2 and 4 h using heparinized capillary tubes (Sarstedt, Nümbrecht, Germany) for the 8-h experiments. For the 4- and 2-h experiments, blood samplings were performed from the tail vein with the same schedule, but terminated at 2 and 1 h, respectively. Eight, four, or two hours after oral administration, mice were deeply anesthetized with 2–3% isoflurane, followed by cardiac puncture to collect blood in Eppendorf tubes containing heparin as an anticoagulant. Brain, liver, spleen, kidney, lung, small intestine, and testis were rapidly collected after sacrificing the mice by cervical dislocation. The small intestinal contents (SIC) were separated from small intestinal tissue (SI), which was flushed and rinsed with cold saline to remove any residual feces. Brain, liver, spleen, kidney, lung, SI, SIC, and testis were homogenized with 1, 3, 1, 2, 1, 3, 2, and 1 mL of 2% BSA (w/v), respectively. Plasma fraction was isolated from blood by centrifugation at 9000× g for 6 min at 4 °C. All samples were stored at −30 °C until analysis.
A sensitive and specific liquid chromatography-tandem mass spectrometry method using protein precipitation pre-treatment was adopted to quantify the concentration of repotrectinib in DMEM medium, plasma samples and tissue homogenates.
A non-compartmental model using the PKSolver add-in program for Microsoft Excel was adopted to calculate the pharmacokinetic parameters of repotrectinib. Oral availability was assessed by the plasma area under the curve (AUC), calculated using repotrectinib plasma concentration-time curves with the linear trapezoidal rule without extrapolating the infinity. Statistical testing was performed in Graphpad Prism7 (Graphpad Software, La Jolla, CA, USA). All data are presented as geometric means ± SD. Heteroscedastic data were log-transformed before applying statistical analysis. When differences between two groups were compared, the two-sided unpaired Student’s t test was used. One-way analysis of variance (ANOVA) was applied when multiple groups were compared, and the Bonferroni post hoc correction was used to accommodate multiple testing. Differences were considered statistically significant when P < 0.05.

[1] = male Abcb1a/1b;Abcg2−/− mice, 4 h
[2] = male Abcb1a/1b;Abcg2−/− mice, 4 h, 10 mg/kg
[3] = male Abcb1a/1b−/− mice, 4 h, 10 mg/kg
[4] = male, po, 10 mg/kg, male Abcb1a/1b;Abcg2−/− mice, 4 h
[5] = male, po, 10 mg/kg, male Abcb1a/1b−/− mice, 4 h
[6] = male, po, 10 mg/kg, male Abcg2−/− mice, 4 h
[7] = male, po, 10 mg/kg, male wild-type mice, 4 h

Q: Which results are given for `C[C@H]1CNC(=O)c2cnn3ccc(nc23)N[C@H](C)c2cc(F)ccc2O1` [repotrectinib]?
A: Small intestinal content recovery, fold decrease (Abcb1a/1b;Abcg2−/− mice vs wild-type): 13.6 fold; Small intestinal content recovery, fold decrease (Abcb1a/1b−/− mice vs wild-type): 4.9 fold; reduction of liver-to-plasma ratio (Abcg2−/− and Abcb1a/1b;Abcg2−/− mice compared to wild-type mice, 4 h): 30–35%; AUC(0-t) (male Abcg2−/− mice, 4 h): 11900 ± 1420 ng·h/mL; Fold change Cliver [1]: 1.37; Fold change SIC (% of dose) [1]: 0.07; Fold change ratio (SIC (%)-to-plasma) [1]: 0.03; Fold change ratio (liver-to-plasma) [1]: 0.69; Fold change ratio (testis-to-plasma) [1]: 5.6; Fold increase Cbrain [1]: 29.1; Fold increase Ctestis [1]: 10.8; Fold change ratio (brain-to-plasma) [2]: 14 and 14.2; Fold increase AUC0–4h [2]: 2.0; Fold change Cliver (male Abcb1a/1b−/− mice, 4 h): 0.84; Fold change SIC (% of dose) (male Abcb1a/1b−/− mice, 4 h): 0.20; Fold change ratio (SIC (%)-to-plasma) (male Abcb1a/1b−/− mice, 4 h): 0.21; Fold change ratio (liver-to-plasma) (male Abcb1a/1b−/− mice, 4 h): 0.85; Fold change ratio (testis-to-plasma) (male Abcb1a/1b−/− mice, 4 h): 2.42; Fold increase AUC0–4h (male Abcb1a/1b−/− mice, 4 h): 1.32; Fold increase Ctestis (male Abcb1a/1b−/− mice, 4 h): 2.45; Fold change ratio (brain-to-plasma) [3]: 4.1 and 4.13; Fold increase Cbrain [3]: 4.1 and 4.14; Fold change Cliver (male Abcg2−/− mice, 4 h): 1.01; Fold change SIC (% of dose) (male Abcg2−/− mice, 4 h): 0.87; Fold change ratio (SIC (%)-to-plasma) (male Abcg2−/− mice, 4 h): 0.54; Fold change ratio (brain-to-plasma) (male Abcg2−/− mice, 4 h): 0.93; Fold change ratio (liver-to-plasma) (male Abcg2−/− mice, 4 h): 0.65; Fold change ratio (testis-to-plasma) (male Abcg2−/− mice, 4 h): 0.71; Fold increase Cbrain (male Abcg2−/− mice, 4 h): 1.41; Fold increase Ctestis (male Abcg2−/− mice, 4 h): 1.07; Fold increase AUC0–4h (male Abcg2−/− mice, 4 h, 10 mg/kg): 1.7; Fold change Cliver (male wild-type mice, 4 h): 1.00; Fold change SIC (% of dose) (male wild-type mice, 4 h): 1.00; Fold change ratio (SIC (%)-to-plasma) (male wild-type mice, 4 h): 1.00; Fold change ratio (brain-to-plasma) (male wild-type mice, 4 h): 1.00; Fold change ratio (liver-to-plasma) (male wild-type mice, 4 h): 1.00; Fold change ratio (testis-to-plasma) (male wild-type mice, 4 h): 1.00; Fold increase AUC0–4h (male wild-type mice, 4 h): 1.00; Fold increase Cbrain (male wild-type mice, 4 h): 1.00; Fold increase Ctestis (male wild-type mice, 4 h): 1.00; Kp at 4 h (male, brain, po, 10 mg/kg, male Abcb1a/1b;Abcg2−/− mice, 4 h, read-out: Brain-to-plasma ratio): 2.13 ± 0.21; concentration at 4 h (male, brain, po, 10 mg/kg, male Abcb1a/1b;Abcg2−/− mice, 4 h, read-out: Cbrain): 2760 ± 928 ng/g; Kp at 4 h (male, brain, po, 10 mg/kg, male Abcb1a/1b−/− mice, 4 h, read-out: Brain-to-plasma ratio): 0.62 ± 0.17; concentration at 4 h (male, brain, po, 10 mg/kg, male Abcb1a/1b−/− mice, 4 h, read-out: Cbrain): 394 ± 102 ng/g; Kp at 4 h (male, brain, po, 10 mg/kg, male Abcg2−/− mice, 4 h, read-out: Brain-to-plasma ratio): 0.14 ± 0.03; concentration at 4 h (male, brain, po, 10 mg/kg, male Abcg2−/− mice, 4 h, read-out: Cbrain): 134 ± 18 ng/g; Kp at 4 h (male, brain, po, 10 mg/kg, male wild-type mice, 4 h, read-out: Brain-to-plasma ratio): 0.15 ± 0.03; concentration at 4 h (male, brain, po, 10 mg/kg, male wild-type mice, 4 h, read-out: Cbrain): 95.1 ± 23.5 ng/g; concentration at 4 h (male, liver, po, 10 mg/kg, male Abcb1a/1b;Abcg2−/− mice, 4 h, read-out: Cliver): 9090 ± 2750 ng/g; Kp at 4 h (male, liver, po, 10 mg/kg, male Abcb1a/1b;Abcg2−/− mice, 4 h, read-out: Liver-to-plasma ratio): 7.2 ± 1.2; concentration at 4 h (male, liver, po, 10 mg/kg, male Abcb1a/1b−/− mice, 4 h, read-out: Cliver): 5580 ± 2030 ng/g; Kp at 4 h (male, liver, po, 10 mg/kg, male Abcb1a/1b−/− mice, 4 h, read-out: Liver-to-plasma ratio): 8.9 ± 2.4; concentration at 4 h (male, liver, po, 10 mg/kg, male Abcg2−/− mice, 4 h, read-out: Cliver): 6690 ± 1210 ng/g; Kp at 4 h (male, liver, po, 10 mg/kg, male Abcg2−/− mice, 4 h, read-out: Liver-to-plasma ratio): 6.8 ± 0.6; concentration at 4 h (male, liver, po, 10 mg/kg, male wild-type mice, 4 h, read-out: Cliver): 6630 ± 1160 ng/g; Kp at 4 h (male, liver, po, 10 mg/kg, male wild-type mice, 4 h, read-out: Liver-to-plasma ratio): 10.5 ± 1.9; Cmax [4]: 5230 ± 1240 ng/mL; AUC(0-t) [4]: 14000 ± 3180 ng·h/mL; Cmax [5]: 3630 ± 620 ng/mL; AUC(0-t) [5]: 9200 ± 1640 ng·h/mL; Cmax [6]: 5080 ± 490 ng/mL; Cmax [7]: 3080 ± 1440 ng/mL; AUC(0-t) [7]: 6990 ± 2460 ng·h/mL; Tmax [4]: 60 min; Tmax [5]: 30 min; Tmax [6]: 15 min; Tmax [7]: 30 min; Kp at 4 h (male, small intestinal content, po, 10 mg/kg, male Abcb1a/1b;Abcg2−/− mice, 4 h, read-out: SIC (%)-to-plasma ratio): 0.0003 ± 9e-05; Kp at 4 h (male, small intestinal content, po, 10 mg/kg, male Abcb1a/1b−/− mice, 4 h, read-out: SIC (%)-to-plasma ratio): 0.00186 ± 0.00084; Kp at 4 h (male, small intestinal content, po, 10 mg/kg, male Abcg2−/− mice, 4 h, read-out: SIC (%)-to-plasma ratio): 0.00475 ± 0.00154; Kp at 4 h (male, small intestinal content, po, 10 mg/kg, male wild-type mice, 4 h, read-out: SIC (%)-to-plasma ratio): 0.00879 ± 0.00241; concentration at 4 h (male, testis, po, 10 mg/kg, male Abcb1a/1b;Abcg2−/− mice, 4 h, read-out: Ctestis): 1670 ± 386 ng/g; Kp at 4 h (male, testis, po, 10 mg/kg, male Abcb1a/1b;Abcg2−/− mice, 4 h, read-out: Testis-to-plasma ratio): 1.35 ± 0.31; concentration at 4 h (male, testis, po, 10 mg/kg, male Abcb1a/1b−/− mice, 4 h, read-out: Ctestis): 380 ± 122 ng/g; Kp at 4 h (male, testis, po, 10 mg/kg, male Abcb1a/1b−/− mice, 4 h, read-out: Testis-to-plasma ratio): 0.58 ± 0.14; concentration at 4 h (male, testis, po, 10 mg/kg, male Abcg2−/− mice, 4 h, read-out: Ctestis): 166 ± 27 ng/g; Kp at 4 h (male, testis, po, 10 mg/kg, male Abcg2−/− mice, 4 h, read-out: Testis-to-plasma ratio): 0.17 ± 0.02; concentration at 4 h (male, testis, po, 10 mg/kg, male wild-type mice, 4 h, read-out: Ctestis): 155 ± 55 ng/g; Kp at 4 h (male, testis, po, 10 mg/kg, male wild-type mice, 4 h, read-out: Testis-to-plasma ratio): 0.24 ± 0.07; SIC (% of dose) (small intestinal content, male Abcb1a/1b;Abcg2−/− mice, 4 h, 10 mg/kg): 0.4 % of dose and 0.41 ± 0.23 ^(##) % of dose; SIC (% of dose) (small intestinal content, male Abcb1a/1b−/− mice, 4 h, 10 mg/kg): 1.1 % of dose and 1.13 ± 0.40 % of dose; SIC (% of dose) (small intestinal content, male Abcg2−/− mice, 4 h, 10 mg/kg): 4.8 % of dose and 4.84 ± 2.21 % of dose
